Here are results for 7 compounds from patent US20210395313A1, “PEPTIDE PAC1 ANTAGONISTS” (AMGEN INC., priority 2017, published 2021).

SMILES strings stand for the structures. Where a SMILES comes first, the peptide text is derived from it. Bridges are numbered along the chain shown (N, C = ends).

The test concerns the target T1, rat PAC1 receptor (Rattus norvegicus, UniProt P32215).
T1 construct: SHSY-5Y (human neuroblastoma cell line) and RG-2 (rat glioma cell line) cells endogenously express human and rat PAC1 receptors, respectively; endogenous in cells; host or cells: RG-2 rat glioma cells
T1 sequence (P32215 20-523): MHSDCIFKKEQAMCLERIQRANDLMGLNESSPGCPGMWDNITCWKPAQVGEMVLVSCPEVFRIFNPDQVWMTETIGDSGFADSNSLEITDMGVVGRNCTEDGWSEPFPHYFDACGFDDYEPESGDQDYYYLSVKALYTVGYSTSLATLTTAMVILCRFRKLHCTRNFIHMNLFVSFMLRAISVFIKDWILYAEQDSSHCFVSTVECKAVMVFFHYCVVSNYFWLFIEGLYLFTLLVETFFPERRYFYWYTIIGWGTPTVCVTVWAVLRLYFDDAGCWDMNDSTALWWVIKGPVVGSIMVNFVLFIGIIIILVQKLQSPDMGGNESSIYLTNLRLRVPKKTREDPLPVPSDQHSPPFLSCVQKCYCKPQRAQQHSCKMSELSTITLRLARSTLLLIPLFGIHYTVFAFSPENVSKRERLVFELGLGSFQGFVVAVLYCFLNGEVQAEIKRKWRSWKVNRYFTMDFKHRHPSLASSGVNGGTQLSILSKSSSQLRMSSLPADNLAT
The test can be described thus: LANCE Ultra cAMP accumulation antagonist assay in RG-2 cells.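 Further: RG-2 rat glioma cells endogenously expressing PAC1, test peptide preincubated 30 min, then PAC1 agonist added at its EC80 for 15 min, cAMP accumulation read by LANCE Ultra.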 The test is classed as cell-based.
One may read the IC50 as the concentration that gives 50% inhibition. Low values mean higher potency, high ones lower potency. `CC[C@H](C)[C@H](NC(=O)[C@H](C)NC(=O)[C@H](CCCCN)NC(=O)[C@H](CCCNC(=N)N)NC(=O)[C@H](Cc1ccccc1)NC(=O)[C@H](CCC(N)=O)NC(=O)[C@@H]1CSSC[C@H](N)C(=O)N[C@@H](CC(=O)O)C(=O)N[C@@H](C)C(=O)N[C@@H]([C@@H](C)O)C(=O)N1)C(=O)N[C@@H](CC(=O)O)C(=O)N[C@@H](CC(=O)O)C(=O)N[C@H]1CSSC[C@@H](C(=O)N[C@@H](CCSC)C(=O)N[C@@H](CCCCN)C(=O)N[C@@H](CCC(N)=O)C(=O)N[C@@H](CCCCN)C(=O)N[C@@H](CCCCN)C(=O)N[C@@H](CCCCN)C(=O)N[C@@H](CCC(=O)O)C(=O)N[C@@H](Cc2ccccc2)C(=O)N[C@@H](CCCCN)C(=O)N[C@@H](C)C(=O)NCC(=O)O)NC(=O)[C@H](C)NC(=O)[C@H](CCCCN)NC(=O)[C@H](Cc2ccccc2)NC(=O)[C@H](C(C)C)NC(=O)[C@H](CO)NC(=O)CNC(=O)[C@@H]2CCCN2C(=O)[C@H](C(C)C)NC(=O)[C@H](CC(N)=O)NC(=O)[C@H](CO)NC(=O)[C@H](Cc2c[nH]cn2)NC(=O)[C@H](Cc2c[nH]cn2)NC(=O)[C@H](C)NC(=O)[C@H](CCC(N)=O)NC(=O)[C@H](CCCCN)NC(=O)[C@H](CCC(N)=O)NC1=O` [SEQ ID NO 190] showed an IC50 of 0.01 to 1 nM. With `CC[C@H](C)[C@H](NC(=O)[C@H](C)NC(=O)[C@H](CCCCN)NC(=O)[C@H](CCCNC(=N)N)NC(=O)[C@H](Cc1ccccc1)NC(=O)[C@H](CCC(N)=O)NC(=O)[C@@H]1CSSC[C@H](N)C(=O)N[C@@H](CC(=O)O)C(=O)N[C@@H](C)C(=O)N[C@@H]([C@@H](C)O)C(=O)N1)C(=O)N[C@@H](CC(=O)O)C(=O)N[C@@H](CC(=O)O)C(=O)N[C@H]1CSSC[C@@H](C(=O)N[C@@H](CCSC)C(=O)N[C@@H](CCCCN)C(=O)N[C@@H](CCC(N)=O)C(=O)N[C@@H](CCCCN)C(=O)N[C@@H](CCCCN)C(=O)N[C@@H](CCCCN)C(=O)N[C@@H](CCC(=O)O)C(=O)N[C@@H](Cc2c[nH]c3ccccc23)C(=O)N[C@@H](CCCCN)C(=O)N[C@@H](C)C(=O)NCC(N)=O)NC(=O)[C@H](C)NC(=O)[C@H](CCCCN)NC(=O)[C@H](Cc2ccccc2)NC(=O)[C@H](C(C)C)NC(=O)[C@H](CO)NC(=O)[C@H](C)NC(=O)[C@H](Cc2c[nH]cn2)NC(=O)[C@H](Cc2ccc(O)cc2)NC(=O)[C@H](C)NC(=O)[C@H](CCC(N)=O)NC(=O)[C@H](CCCNC(=N)N)NC(=O)[C@H](C)NC1=O` [compound 428] (H-CDATCQFRKAIDDCARQAYHASVFKACMKQKKKEWKAG-NH2; disulfide 1-5, 14-27) the figure was less than 0.01 nM. With `CC[C@H](C)[C@H](NC(=O)[C@H](C)NC(=O)[C@H](CCCCN)NC(=O)[C@H](CCCNC(=N)N)NC(=O)[C@H](Cc1ccccc1)NC(=O)[C@H](CCC(N)=O)NC(=O)[C@@H]1CSSC[C@H](N)C(=O)N[C@@H](CC(=O)O)C(=O)N[C@@H](C)C(=O)N[C@@H]([C@@H](C)O)C(=O)N1)C(=O)N[C@@H](CC(=O)O)C(=O)N[C@@H](CC(=O)O)C(=O)N[C@H]1CSSC[C@@H](C(=O)N[C@@H](CCSC)C(=O)N[C@@H](CCCCN)C(=O)N[C@@H](CCC(N)=O)C(=O)N[C@@H](CCCCN)C(=O)N[C@@H](CCCCN)C(=O)N[C@@H](CCCCN)C(=O)N[C@@H](CCC(=O)O)C(=O)N[C@@H](Cc2c[nH]c3ccccc23)C(=O)N[C@@H](CCCCN)C(=O)N[C@@H](C)C(=O)NCC(N)=O)NC(=O)[C@H](C)NC(=O)[C@H](CCCCN)NC(=O)[C@H](Cc2ccccc2)NC(=O)[C@H](C(C)C)NC(=O)[C@H](CO)NC(=O)[C@H](CC(N)=O)NC(=O)[C@H](CO)NC(=O)[C@H](Cc2c[nH]cn2)NC(=O)[C@H](Cc2ccc(O)cc2)NC(=O)[C@H](C)NC(=O)[C@H](CCC(N)=O)NC(=O)[C@H](CCCNC(=N)N)NC(=O)[C@H](C)NC1=O` [compound 429] (H-CDATCQFRKAIDDCARQAYHSNSVFKACMKQKKKEWKAG-NH2; disulfide 1-5, 14-28) the figure was less than 0.01 nM; with `CC[C@H](C)[C@H](NC(=O)[C@H](C)NC(=O)[C@H](CCCCN)NC(=O)[C@H](CCCNC(=N)N)NC(=O)[C@H](Cc1ccccc1)NC(=O)[C@H](CCC(N)=O)NC(=O)[C@@H]1CSSC[C@H](N)C(=O)N[C@@H](CC(=O)O)C(=O)N[C@@H](C)C(=O)N[C@@H]([C@@H](C)O)C(=O)N1)C(=O)N[C@@H](CC(=O)O)C(=O)N[C@@H](CC(=O)O)C(=O)N[C@H]1CSSC[C@@H](C(=O)N[C@@H](CCSC)C(=O)N[C@@H](CCCCN)C(=O)N[C@@H](CCC(N)=O)C(=O)N[C@@H](CCCCN)C(=O)N[C@@H](CCCCN)C(=O)N[C@@H](CCCCN)C(=O)N[C@@H](CCC(=O)O)C(=O)N[C@@H](Cc2c[nH]c3ccccc23)C(=O)N[C@@H](CCCCN)C(=O)N[C@@H](C)C(=O)NCC(N)=O)NC(=O)[C@H](CO)NC(=O)[C@H](CCCCN)NC(=O)[C@H](Cc2ccccc2)NC(=O)[C@H](C(C)C)NC(=O)[C@H](CO)NC(=O)[C@H](CO)NC(=O)[C@H](Cc2c[nH]cn2)NC(=O)[C@H](Cc2ccc(O)cc2)NC(=O)[C@H](C)NC(=O)[C@H](CCC(N)=O)NC(=O)[C@H](CCCNC(=N)N)NC(=O)[C@H](C)NC1=O` [compound 430] (H-CDATCQFRKAIDDCARQAYHSSVFKSCMKQKKKEWKAG-NH2; disulfide 1-5, 14-27), less than 0.01 nM; with `CC[C@H](C)[C@H](NC(=O)[C@H](C)NC(=O)[C@H](CCCCN)NC(=O)[C@H](CCCNC(=N)N)NC(=O)[C@H](Cc1ccccc1)NC(=O)[C@H](CCC(N)=O)NC(=O)[C@@H]1CSSC[C@H](N)C(=O)N[C@@H](CC(=O)O)C(=O)N[C@@H](C)C(=O)N[C@@H]([C@@H](C)O)C(=O)N1)C(=O)N[C@@H](CC(=O)O)C(=O)N[C@@H](CC(=O)O)C(=O)N[C@H]1CSSC[C@@H](C(=O)N[C@@H](CCSC)C(=O)N[C@@H](CCCCN)C(=O)N[C@@H](CCC(N)=O)C(=O)N[C@@H](CCCCN)C(=O)N[C@@H](CCCCN)C(=O)N[C@@H](CCCCN)C(=O)N[C@@H](CCC(=O)O)C(=O)N[C@@H](Cc2c[nH]c3ccccc23)C(=O)N[C@@H](CCCCN)C(=O)N[C@@H](C)C(=O)NCC(N)=O)NC(=O)[C@H](C)NC(=O)[C@H](CCCCN)NC(=O)[C@H](Cc2ccccc2)NC(=O)[C@H](C(C)C)NC(=O)[C@H](CO)NC(=O)[C@H](CO)NC(=O)[C@H](Cc2c[nH]cn2)NC(=O)[C@H](Cc2ccc(O)cc2)NC(=O)[C@H](C)NC(=O)[C@H](CO)NC(=O)[C@H](CCCNC(=N)N)NC(=O)[C@H](C)NC1=O` [compound 431] (H-CDATCQFRKAIDDCARSAYHSSVFKACMKQKKKEWKAG-NH2; disulfide 1-5, 14-27), less than 0.01 nM. With `CC[C@H](C)[C@H](NC(=O)[C@H](C)NC(=O)[C@H](CCCCN)NC(=O)[C@H](CCCNC(=N)N)NC(=O)[C@H](Cc1ccccc1)NC(=O)[C@H](CCC(N)=O)NC(=O)[C@@H]1CSSC[C@H](N)C(=O)N[C@@H](CC(=O)O)C(=O)N[C@@H](C)C(=O)N[C@@H]([C@@H](C)O)C(=O)N1)C(=O)N[C@@H](CC(=O)O)C(=O)N[C@@H](CC(=O)O)C(=O)N[C@H]1CSSC[C@@H](C(=O)N[C@@H](CCSC)C(=O)N[C@@H](CCCCN)C(=O)N[C@@H](CCC(N)=O)C(=O)N[C@@H](CCCCN)C(=O)N[C@@H](CCCCN)C(=O)N[C@@H](CCCCN)C(=O)N[C@@H](CCC(=O)O)C(=O)N[C@@H](Cc2c[nH]c3ccccc23)C(=O)N[C@@H](CCCCN)C(=O)N[C@@H](C)C(=O)NCC(N)=O)NC(=O)[C@H](C)NC(=O)[C@H](CCCCN)NC(=O)[C@H](Cc2ccccc2)NC(=O)[C@H](C(C)C)NC(=O)[C@H](CO)NC(=O)[C@H](CO)NC(=O)[C@H](Cc2c[nH]cn2)NC(=O)[C@H](Cc2ccc(O)cc2)NC(=O)[C@H](CO)NC(=O)[C@H](CCC(N)=O)NC(=O)[C@H](CCCNC(=N)N)NC(=O)[C@H](C)NC1=O` [compound 432] (H-CDATCQFRKAIDDCARQSYHSSVFKACMKQKKKEWKAG-NH2; disulfide 1-5, 14-27) the figure was less than 0.01 nM. For the compound `CC[C@H](C)[C@H](NC(=O)[C@H](C)NC(=O)[C@H](CCCCN)NC(=O)[C@H](CCCNC(=N)N)NC(=O)[C@H](Cc1ccccc1)NC(=O)[C@H](CCC(N)=O)NC(=O)[C@@H]1CSSC[C@H](N)C(=O)N[C@@H](CC(=O)O)C(=O)N[C@@H](C)C(=O)N[C@@H]([C@@H](C)O)C(=O)N1)C(=O)N[C@@H](CC(=O)O)C(=O)N[C@@H](CC(=O)O)C(=O)N[C@H]1CSSC[C@@H](C(=O)N[C@@H](CCSC)C(=O)N[C@@H](CCCCN)C(=O)N[C@@H](CCC(N)=O)C(=O)N[C@@H](CCCCN)C(=O)N[C@@H](CCCCN)C(=O)N[C@@H](CCCCN)C(=O)N[C@@H](CCC(=O)O)C(=O)N[C@@H](Cc2c[nH]c3ccccc23)C(=O)N[C@@H](CCCCN)C(=O)N[C@@H](C)C(=O)NCC(N)=O)NC(=O)[C@H](C)NC(=O)[C@H](CCCCN)NC(=O)[C@H](Cc2ccccc2)NC(=O)[C@H](C(C)C)NC(=O)[C@H](CO)NC(=O)[C@H](CO)NC(=O)[C@H](Cc2c[nH]cn2)NC(=O)[C@H](CO)NC(=O)[C@H](C)NC(=O)[C@H](CCC(N)=O)NC(=O)[C@H](CCCNC(=N)N)NC(=O)[C@H](C)NC1=O` [compound 433] (H-CDATCQFRKAIDDCARQASHSSVFKACMKQKKKEWKAG-NH2; disulfide 1-5, 14-27), the IC50 was less than 0.01 nM.
